Results on 14 compounds are retold here after patent US10081635B2, “Substituted N-(pyrrolidine-3-yl)-7H-pyrrolo[2,3-D]pyrimidine-4-amine as janus kinase inhibitor” (YANG JI CHEMICAL CO., LTD., priority 2014, dated 2018).

In test [1] the target is T1, Human JAK3 (Homo sapiens (Human), UniProt P52333). The test is described as follows: In vitro kinase inhibition test, JAK3 (33P-ATP filter scintillation). Type of test: biochemical. The settings on record: compound at 1 uM; read-out: JAK3 kinase-phosphorylation inhibitory level (% inhibition).
T1 sequence (P52333 whole entry): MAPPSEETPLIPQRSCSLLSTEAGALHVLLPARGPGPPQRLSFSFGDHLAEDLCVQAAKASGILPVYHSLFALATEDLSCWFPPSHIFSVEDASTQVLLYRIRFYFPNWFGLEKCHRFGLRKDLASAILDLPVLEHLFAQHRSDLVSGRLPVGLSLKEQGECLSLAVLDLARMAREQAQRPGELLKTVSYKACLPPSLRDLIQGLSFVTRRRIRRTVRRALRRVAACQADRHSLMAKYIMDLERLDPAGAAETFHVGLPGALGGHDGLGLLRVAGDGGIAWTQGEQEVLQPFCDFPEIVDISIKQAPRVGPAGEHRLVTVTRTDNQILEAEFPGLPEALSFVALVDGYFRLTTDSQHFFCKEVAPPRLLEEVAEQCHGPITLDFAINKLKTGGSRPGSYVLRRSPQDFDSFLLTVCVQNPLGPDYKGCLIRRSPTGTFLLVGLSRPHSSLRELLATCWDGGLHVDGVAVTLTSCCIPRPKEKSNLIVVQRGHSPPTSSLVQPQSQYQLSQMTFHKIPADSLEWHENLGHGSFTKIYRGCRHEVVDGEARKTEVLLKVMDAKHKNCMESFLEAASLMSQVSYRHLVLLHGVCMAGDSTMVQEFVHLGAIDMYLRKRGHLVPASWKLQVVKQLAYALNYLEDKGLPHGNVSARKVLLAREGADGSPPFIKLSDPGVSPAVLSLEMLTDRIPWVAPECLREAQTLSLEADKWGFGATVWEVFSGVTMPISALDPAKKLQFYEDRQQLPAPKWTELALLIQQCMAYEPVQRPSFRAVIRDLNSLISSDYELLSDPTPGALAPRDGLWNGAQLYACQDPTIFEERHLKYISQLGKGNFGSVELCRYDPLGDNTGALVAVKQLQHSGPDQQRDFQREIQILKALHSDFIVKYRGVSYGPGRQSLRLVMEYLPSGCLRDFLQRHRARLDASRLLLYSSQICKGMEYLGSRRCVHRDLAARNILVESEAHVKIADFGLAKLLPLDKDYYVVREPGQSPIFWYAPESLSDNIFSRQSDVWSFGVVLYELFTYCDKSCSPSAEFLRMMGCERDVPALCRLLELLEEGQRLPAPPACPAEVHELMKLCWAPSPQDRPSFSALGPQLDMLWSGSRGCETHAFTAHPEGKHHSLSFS
The target in test [2] is T2, Human TYK2 (Homo sapiens (Human), UniProt P29597). The test is described as follows: In vitro kinase inhibition test, TYK2 (33P-ATP filter scintillation). Type of test: biochemical.
T2 sequence (P29597 whole entry): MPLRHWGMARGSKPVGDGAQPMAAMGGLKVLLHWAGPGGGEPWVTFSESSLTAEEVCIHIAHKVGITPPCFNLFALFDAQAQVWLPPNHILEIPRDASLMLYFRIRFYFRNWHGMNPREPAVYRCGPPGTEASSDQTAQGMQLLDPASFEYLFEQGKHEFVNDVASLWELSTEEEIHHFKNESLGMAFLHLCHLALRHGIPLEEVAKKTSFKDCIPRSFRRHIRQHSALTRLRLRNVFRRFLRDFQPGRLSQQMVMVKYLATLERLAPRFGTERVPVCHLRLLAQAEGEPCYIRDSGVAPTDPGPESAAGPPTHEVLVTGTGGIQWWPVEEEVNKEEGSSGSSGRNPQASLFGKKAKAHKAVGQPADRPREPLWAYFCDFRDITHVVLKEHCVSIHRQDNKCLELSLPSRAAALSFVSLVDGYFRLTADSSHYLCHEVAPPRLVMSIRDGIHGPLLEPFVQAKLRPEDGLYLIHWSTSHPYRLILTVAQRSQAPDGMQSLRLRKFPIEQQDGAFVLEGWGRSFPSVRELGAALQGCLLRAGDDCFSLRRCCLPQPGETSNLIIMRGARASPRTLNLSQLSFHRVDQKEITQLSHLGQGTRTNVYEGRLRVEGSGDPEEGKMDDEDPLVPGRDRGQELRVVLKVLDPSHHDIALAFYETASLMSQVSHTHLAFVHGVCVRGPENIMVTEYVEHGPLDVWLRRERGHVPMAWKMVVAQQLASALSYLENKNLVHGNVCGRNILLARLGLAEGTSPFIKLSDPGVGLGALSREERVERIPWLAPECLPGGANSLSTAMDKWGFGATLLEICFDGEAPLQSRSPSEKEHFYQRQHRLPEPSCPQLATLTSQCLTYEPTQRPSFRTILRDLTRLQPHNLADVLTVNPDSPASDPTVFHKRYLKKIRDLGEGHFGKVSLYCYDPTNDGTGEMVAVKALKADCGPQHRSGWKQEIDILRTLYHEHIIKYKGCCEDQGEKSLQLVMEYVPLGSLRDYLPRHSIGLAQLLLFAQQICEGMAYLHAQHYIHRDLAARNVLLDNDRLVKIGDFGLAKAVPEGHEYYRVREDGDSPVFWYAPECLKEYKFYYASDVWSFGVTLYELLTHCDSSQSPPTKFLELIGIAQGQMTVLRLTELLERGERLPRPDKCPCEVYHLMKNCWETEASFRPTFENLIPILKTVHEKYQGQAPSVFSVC
For test [3], the target named is T3, Human JAK1 (Homo sapiens (Human), UniProt P23458). The test is described as follows: In vitro kinase inhibition test, JAK1 (33P-ATP filter scintillation). Format: biochemical. The settings on record: compound at 1 uM; read-out: JAK1 kinase-phosphorylation inhibitory level (% inhibition).
T3 sequence (P23458 whole entry): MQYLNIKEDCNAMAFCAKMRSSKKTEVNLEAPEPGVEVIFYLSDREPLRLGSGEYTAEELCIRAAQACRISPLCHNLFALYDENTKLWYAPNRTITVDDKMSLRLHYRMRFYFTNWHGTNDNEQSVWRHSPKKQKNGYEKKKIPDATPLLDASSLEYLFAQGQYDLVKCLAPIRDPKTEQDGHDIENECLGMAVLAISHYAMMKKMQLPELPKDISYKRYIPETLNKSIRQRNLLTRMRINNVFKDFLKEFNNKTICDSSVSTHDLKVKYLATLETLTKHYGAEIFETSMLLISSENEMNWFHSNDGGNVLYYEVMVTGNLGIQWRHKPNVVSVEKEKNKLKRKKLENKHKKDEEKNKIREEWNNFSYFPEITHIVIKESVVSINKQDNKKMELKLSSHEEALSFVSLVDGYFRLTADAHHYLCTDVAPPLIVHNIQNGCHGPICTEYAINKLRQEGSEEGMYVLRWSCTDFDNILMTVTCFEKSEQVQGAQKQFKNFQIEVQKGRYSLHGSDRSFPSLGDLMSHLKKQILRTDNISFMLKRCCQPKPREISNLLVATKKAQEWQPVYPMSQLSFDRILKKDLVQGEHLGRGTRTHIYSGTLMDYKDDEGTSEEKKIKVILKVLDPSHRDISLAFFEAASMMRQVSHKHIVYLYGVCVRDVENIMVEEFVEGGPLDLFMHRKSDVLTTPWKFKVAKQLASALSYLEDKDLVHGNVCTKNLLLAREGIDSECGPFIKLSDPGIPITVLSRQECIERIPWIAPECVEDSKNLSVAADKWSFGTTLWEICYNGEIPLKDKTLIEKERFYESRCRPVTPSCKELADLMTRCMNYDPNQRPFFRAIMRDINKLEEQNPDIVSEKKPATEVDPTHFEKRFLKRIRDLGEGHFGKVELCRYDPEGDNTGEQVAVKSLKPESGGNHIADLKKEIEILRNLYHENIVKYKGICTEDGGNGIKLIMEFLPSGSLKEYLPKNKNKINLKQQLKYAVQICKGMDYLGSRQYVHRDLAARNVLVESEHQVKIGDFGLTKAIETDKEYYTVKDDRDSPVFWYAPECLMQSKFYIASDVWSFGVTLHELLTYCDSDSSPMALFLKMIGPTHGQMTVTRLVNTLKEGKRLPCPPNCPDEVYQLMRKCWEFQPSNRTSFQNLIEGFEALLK
For test [4], the target named is T4, Human JAK2 (Homo sapiens (Human), UniProt O60674). The test is described as follows: In vitro kinase inhibition test, JAK2 (33P-ATP filter scintillation). Format: biochemical. The settings on record: compound at 1 uM; read-out: JAK2 kinase-phosphorylation inhibitory level (% inhibition).
T4 sequence (O60674 whole entry): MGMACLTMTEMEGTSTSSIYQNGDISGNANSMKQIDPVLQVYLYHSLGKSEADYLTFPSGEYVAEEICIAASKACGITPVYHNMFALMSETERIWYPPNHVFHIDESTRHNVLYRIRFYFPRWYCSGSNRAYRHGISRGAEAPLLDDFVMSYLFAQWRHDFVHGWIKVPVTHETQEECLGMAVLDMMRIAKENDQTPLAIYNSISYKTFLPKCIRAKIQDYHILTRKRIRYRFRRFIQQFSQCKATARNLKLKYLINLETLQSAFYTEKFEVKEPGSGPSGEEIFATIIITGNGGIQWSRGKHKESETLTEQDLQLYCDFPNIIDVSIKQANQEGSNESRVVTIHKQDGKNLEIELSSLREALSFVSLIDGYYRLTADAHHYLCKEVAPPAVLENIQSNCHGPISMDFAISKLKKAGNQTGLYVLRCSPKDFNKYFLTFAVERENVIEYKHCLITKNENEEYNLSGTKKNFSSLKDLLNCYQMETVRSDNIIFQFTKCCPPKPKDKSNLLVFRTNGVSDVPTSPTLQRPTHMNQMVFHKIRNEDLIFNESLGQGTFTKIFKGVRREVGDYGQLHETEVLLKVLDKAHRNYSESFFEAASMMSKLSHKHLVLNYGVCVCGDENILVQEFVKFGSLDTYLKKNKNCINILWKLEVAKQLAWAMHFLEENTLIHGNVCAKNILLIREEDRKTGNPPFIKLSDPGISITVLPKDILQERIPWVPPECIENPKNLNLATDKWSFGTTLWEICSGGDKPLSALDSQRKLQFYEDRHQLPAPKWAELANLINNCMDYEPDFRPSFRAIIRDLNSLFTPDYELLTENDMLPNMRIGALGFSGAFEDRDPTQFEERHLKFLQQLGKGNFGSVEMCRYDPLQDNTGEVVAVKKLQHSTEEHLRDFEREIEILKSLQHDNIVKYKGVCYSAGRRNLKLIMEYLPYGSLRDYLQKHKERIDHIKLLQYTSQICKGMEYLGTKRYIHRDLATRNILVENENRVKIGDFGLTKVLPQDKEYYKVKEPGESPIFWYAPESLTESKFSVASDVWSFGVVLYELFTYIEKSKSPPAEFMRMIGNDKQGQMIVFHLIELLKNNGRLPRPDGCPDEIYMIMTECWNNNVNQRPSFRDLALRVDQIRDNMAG
The target in test [5] is T1, Human JAK3. The test is described as follows: In vitro kinase inhibition test, JAK3 (33P-ATP filter scintillation). Format: biochemical.
In test [6] the target is T2, Human TYK2. The test is described as follows: In vitro kinase inhibition test, TYK2 (33P-ATP filter scintillation). Type of test: biochemical. The settings on record: compound at 1 uM; read-out: TYK2 kinase-phosphorylation inhibitory level (% inhibition).
In test [7] the target is T4, Human JAK2. Nature of the test: In vitro kinase inhibition test, JAK2 (33P-ATP filter scintillation). Format: biochemical.
The target of test [8] is T3, Human JAK1. The test is described as follows: In vitro kinase inhibition test, JAK1 (33P-ATP filter scintillation). Type of test: biochemical.
A further test relates to DBA/1J mice. The test is described as follows: Collagen-induced arthritis (CIA) model, hind paw edema volume. Type of test: in vivo, mouse. The settings on record: 50 mg/kg oral once a day. The procedure: 2. Collagen-induced Arthritis (CIA) Model
DBA/1J mice (6 weeks old, male) were purchased from Japan SLC, Inc., and maintained under controlled lighting in a 12-hour light/dark cycle (07:00-19:00). The temperature was maintained at about 22° C., and the mice were allowed to freely have feed and drinking water.
Type II collagen (dissolved in 0.05 M acetic acid (2 mg/mL)) was kept at 4° C. prior to induction. On the first day of induction, prior to a first immunization, a complete Freund's adjuvant and type II collagen in an equal ratio were homogenized in a cooled tube using a homogenizer to obtain an emulsion of the type II collagen and the Freund's adjuvant. 0.1 mL of the emulsion was injected into mouse tails for the first immunization. […]
Therapeutic efficacy of the compounds according to embodiments was determined using a collagen-induced mouse animal model. […]
The degree of arthritic disease was determined based on the degree of paw edema obtained by measuring a volume of mouse hind paws of the experimental animals. A volume change in the hind paws was measured using a volume measuring flowmeter (Plethysmometer, Havard apparatus, USA, Cat no. 760220), wherein the volume was measured by putting the mouse hind legs into a measurement cell, from knee to paw. The volumes of both paws were measured, and a larger volume value between the two was used as a representative value. […]

Molecules are shown by their SMILES. Structures can show the parent of a compound that is named as a salt. Where two headings read alike, the source gives them in different places. Bounds are passed on as bounds.

As a reminder, the inhibition is the change of the read-out against control, counted positive when it falls. What is called IC50 is the concentration that gives 50% inhibition. A low value points to greater potency. Regarding `CN(c1ncnc2[nH]ccc12)C1CN(C(=O)CC#N)CC12CC2` (racemic) [Example 55, 3-(7-(methyl(7H-pyrrolo[2,3-d]pyrimidin-4-yl)amino)-5-azaspiro[2.4]heptan-5-yl)-3-oxopropanenitrile], the inhibition at 1 µM is 30% at Human JAK3 [1], 95% on Human JAK1 [3], 53% at Human JAK2 [4] and 58% on Human TYK2 [6]. In addition, the IC50 against Human TYK2 [2] stood at 40.4 nM; against Human JAK3 [5], 694 nM; against Human JAK2 [7] it was 148 nM; against Human JAK1 [8] it was 29.3 nM.
Consider `CCS(=O)(=O)N1CC(N(C)c2ncnc3[nH]ccc23)C2(CC2)C1` (racemic) [Example 62, N-(5-(ethylsulfonyl)-5-azaspiro[2.4]heptan-7-yl)-N-methyl-7H-pyrrolo[2,3-d]pyrimidin-4-amine], for which the inhibition at 1 µM was 59% on Human JAK3 [1], 95% on Human JAK1 [3], 59% at Human JAK2 [4] and 67% at Human TYK2 [6]. Further, the IC50 is 198 nM against Human TYK2 [2], > 1000 nM on Human JAK3 [5], 422 nM against Human JAK2 [7] and 2.8 nM against Human JAK1 [8].
On to `CN(c1ncnc2[nH]ccc12)[C@H]1CN(C(=O)CC#N)CC12CC2` [Example 5, (R)-3-(7-(methyl(7H-pyrrolo[2,3-d]pyrimidin-4-yl)amino)-5-azaspiro[2.4]heptan-5-yl)-3-oxopropanenitrile], for which the inhibition at 1 µM at Human JAK3 [1] is 50%; on Human JAK1 [3] it was 95%; at Human JAK2 [4] it was 79%; on Human TYK2 [6] it was 82%. Moreover, the “inhibition of hind paw edema as compared to the control group” value in the test on DBA/1J mice (49th day after the first immunization (end of measurement)) was “about 64%”; in the test with DBA/1J mice (from the 31st day after the first immunization onwards) it was ≥ 60%. The IC50 against Human TYK2 [2] turned out to be 252 nM; at Human JAK3 [5], 1090 nM; on Human JAK2 [7], 412 nM; against Human JAK1 [8], 8.5 nM. Further, the “JAK1 inhibitory activity relative to the racemic mixture (Example 55)” value at Human JAK1 [8] (from IC50 values 8.5 nM vs 29.3 nM) is given as “about 3.5 fold”.
Turning to `CN(c1ncnc2[nH]ccc12)[C@H]1CN(S(=O)(=O)c2cccc(C#N)c2)CC12CC2` [Example 41, (R)-3-((7-(methyl(7H-pyrrolo[2,3-d]pyrimidin-4-yl)amino)-5-azaspiro[2.4]heptan-5-yl)sulfonyl)benzonitrile], the inhibition at 1 µM amounted to 77% at Human JAK3 [1], 99% on Human JAK1 [3], 99% on Human JAK2 [4] and 97% on Human TYK2 [6]. Moreover, the 50% inhibitory concentration (IC50) against Human TYK2 [2] came out at 24.7 nM; against Human JAK3 [5] it was 110 nM; on Human JAK2 [7], 58.6 nM; on Human JAK1 [8] it was 5.8 nM.
As to `CN(c1ncnc2[nH]ccc12)[C@@H]1CN(C(=O)CN=[N+]=[N-])CC12CC2` [Example 65, (S)-2-azido-1-(7-(methyl(7H-pyrrolo[2,3-d]pyrimidin-4-yl)amino)-5-azaspiro[2.4]heptan-5-yl)ethan-1-one], the inhibition at 1 µM on Human JAK3 [1] is -16%; on Human JAK1 [3], 41%; on Human JAK2 [4] it was 12%; at Human TYK2 [6], 14%.
As to `CN(c1ncnc2[nH]ccc12)[C@@H]1CN(C(=O)CC#N)CC12CC2` [Example 66, (S)-3-(7-(methyl(7H-pyrrolo[2,3-d]pyrimidin-4-yl)amino)-5-azaspiro[2.4]heptan-5-yl)-3-oxopropanenitrile], the inhibition at 1 µM on Human JAK3 [1] was 17%; at Human JAK1 [3], 65%; at Human JAK2 [4], -15%; on Human TYK2 [6], -16%. Besides, the IC50 against Human TYK2 [2] is > 1000 nM; at Human JAK3 [5], > 1000 nM; against Human JAK2 [7] it was > 1000 nM; at Human JAK1 [8], 787 nM.
`CNC(=O)CC(=O)N1C[C@@H](N(C)c2ncnc3[nH]ccc23)C2(CC2)C1` [Example 67, (S)-N-methyl-3-(7-(methyl(7H-pyrrolo[2,3-d]pyrimidin-4-yl)amino)-5-azaspiro[2.4]heptan-5-yl)-3-oxopropanamide]: the inhibition at 1 µM was 0% on Human JAK3 [1], 5% on Human JAK1 [3], -7% on Human JAK2 [4] and -4% at Human TYK2 [6].
Consider `CN(c1ncnc2[nH]ccc12)[C@@H]1CN(C(=O)c2ccc(C#N)cc2)CC12CC2` [Example 68, (S)-4-(7-(methyl(7H-pyrrolo[2,3-d]pyrimidin-4-yl)amino)-5-azaspiro[2.4]heptane-5-carbonyl)benzonitrile], for which the inhibition at 1 µM on Human JAK3 [1] is -7%; on Human JAK1 [3], 14%; on Human JAK2 [4], -5%; at Human TYK2 [6] it was 2%.
For `CN(c1ncnc2[nH]ccc12)[C@@H]1CN(C(=S)CC#N)CC12CC2` [Example 69, (S)-3-(7-(methyl(7H-pyrrolo[2,3-d]pyrimidin-4-yl)amino)-5-azaspiro[2.4]heptan-5-yl)-3-thioxopropanenitrile] the same measures were 9%, 58%, 6% and 36%.
As to `CC(C)COC(=O)N1C[C@@H](N(C)c2ncnc3[nH]ccc23)C2(CC2)C1` [Example 70, isobutyl (S)-7-(methyl(7H-pyrrolo[2,3-d]pyrimidin-4-yl)amino)-5-azaspiro[2.4]heptane-5-carboxylate], the inhibition at 1 µM on Human JAK3 [1] was -3%; on Human JAK1 [3] it was 31%; at Human JAK2 [4], 24%; on Human TYK2 [6] it was 5%.
For `CCS(=O)(=O)N1C[C@@H](N(C)c2ncnc3[nH]ccc23)C2(CC2)C1` [Example 71, (S)-N-(5-(ethylsulfonyl)-5-azaspiro[2.4]heptan-7-yl)-N-methyl-7H-pyrrolo[2,3-d]pyrimidin-4-amine] the same measures were -22%, 40%, 13% and 12%.
For `CN(c1ncnc2[nH]ccc12)[C@@H]1CN(S(=O)(=O)c2ccccc2)CC12CC2` [Example 72, (S)-N-methyl-N-(5-(phenylsulfonyl)-5-azaspiro[2.4]heptan-7-yl)-7H-pyrrolo[2,3-d]pyrimidin-4-amine] the same measures were -1%, 55%, 10% and 28%.
For `CCN1C[C@H](N(C)c2ncnc3[nH]ccc23)C2(CC2)C1` [Example 73, (R)-N-(5-ethyl-5-azaspiro[2.4]heptan-7-yl)-N-methyl-7H-pyrrolo[2,3-d]pyrimidin-4-amine] the same measures were 1%, 42%, -6% and -7%.
As for `C[C@@H]1CCN(C(=O)CC#N)C[C@@H]1N(C)c1ncnc2[nH]ccc12` [tofacitinib citrate, reference compound], on Human TYK2 [2] (read-out: TYK2 kinase-phosphorylation inhibitory level (% inhibition)), the inhibition at 1 µM is 100%.
